SMILES strings stand for the structures. “And” between values parts separate entries of the source, which are not always exact repeats. Equal entries are not always repeated.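 48-hour exposure; five concentrations; linearly interpolated endpoints. Here, GI50 denotes the concentration required for 50% inhibition of growth. TGI is the concentration that stops growth completely.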 Bounds are passed on as bounds.

What all share (test): NCI-60 cell line screen, 48 h
For test [1], the system named is HOP-62 NSCLC.
The test system of test [2] is CCRF-CEM leukemia.
The test system of test [3] is NCI-H226 lung.
For test [4], the system named is SN12C renal.
Test [5] has as its system CAKI-1 renal.
For test [6], the system named is U251 CNS.
In test [7] the test system is SR leukemia.
Test [8] relates to NCI-H23 lung.
The subject of test [9] is HCC-2998 colon.
Test [10] concerns OVCAR-3 ovarian.

`O=Cc1ccc(-c2cc(C=O)c(-c3cccs3)[nH]2)s1`: the GI50 is above 100 µM in test [1]; above 100 µM in test [2]; 53.5 µM in [5]; above 100 µM in test [6]; 31.6 µM in test [7]; above 100 µM in [8]. The values for the GI50 in [9] and in [10] were 20.1 µM and 52 µM, respectively. In addition, the TGI in [1] was 72.5 µM and > 100 µM; in test [2] it was 75 µM and > 100 µM; in test [3], 40 µM; in test [4], 75 µM and > 100 µM; in test [5], 58.3 µM and > 100 µM; in [6], 62.9 µM and > 100 µM. Further, the TGI in test [7] is 72.7 µM and > 100 µM; in test [8] it was 75 µM and > 100 µM; in test [9], 56.6 µM and > 100 µM; in test [10], 53.7 µM and > 100 µM.

Regarding `COc1ccc(/C=N\NC(=O)CN2CCN(c3cc4c(cc3F)c(=O)c(C(=O)N/N=C/c3ccc(OC)c(OC)c3)cn4C3CC3)CC2)cc1OC`, the GI50 in [1] is 2.74 µM; in [2], 3.31 µM; in [3], 4.44 µM; in test [4] it was 2.72 µM; in [5], 9.49 µM; in [6], 2.29 µM. Also, the GI50 was 3.11 µM in test [7], 3.1 µM in test [8], 3.52 µM in [9] and 2.65 µM in test [10]. Further, the TGI was 9.54 µM in test [1]; above 100 µM in [2]; 24 µM in test [3]; 8.21 µM in [4]; 91.9 µM in test [5]; 6.29 µM in [6]. In addition, the TGI is above 100 µM in [7], 10.8 µM in test [8], 12.7 µM in [9] and 7.26 µM in test [10].

As to `COC(=O)CCc1cc(OC)c2c(c1)C(C(=O)OC)C(c1ccc(OC)c(OC)c1)O2` (configuration not stated), the GI50 was > 100 µM and 36.6 µM in test [1]; > 100 µM and 45.5 µM in test [5]; > 100 µM and 13.3 µM in test [6]; > 100 µM and 13.9 µM in [10]. Besides, the TGI was above 100 µM in test [1]; above 100 µM in test [2]; > 100 µM and 54.5 µM in [3]; above 100 µM in test [4]; above 100 µM in [5]; above 100 µM in test [6]. Further, the TGI in test [7], in test [8], in test [9] and in test [10] was above 100 µM in each case.

Regarding `CCNC(=O)CCN(C(=O)O)S(=O)(=O)c1ccc(NC(=O)c2ccccc2)cc1`, the TGI in [1], in test [2], in [3], in test [4], in test [5] and in test [6] was above 100 µM in each case. In addition, the TGI in [7], in test [8], in test [9] and in [10] was above 100 µM in each case.

For `NOCC(=O)O`, the GI50 in test [1] was above 100 µM; in test [2], 94 µM; in test [3], above 100 µM; in [4], above 100 µM; in test [5], above 100 µM; in [6] it was above 100 µM. Also, the GI50 in test [7], in [8], in [9] and in test [10] was above 100 µM in each case. The TGI in test [1], in test [2], in [3], in [4], in [5] and in test [6] was above 100 µM throughout. Further, the TGI in test [7], in test [8], in [9] and in test [10] was above 100 µM throughout.

In the case of `O=S(=O)(NC1=NCCN1C(=S)SN1CCn2c1nsc2=S)c1ccc(Br)cc1`, the GI50 in [1] is 52.4 µM; in test [2] it was 20.9 µM; in test [3], 40.2 µM; in test [4] it was 31.6 µM; in test [5] it was 12.6 µM; in [6], 38.9 µM. Further, the GI50 in test [7] was 24.2 µM; in [8], 53.2 µM; in test [9], 63.9 µM; in [10], 23.8 µM. The TGI in [1] was above 100 µM; in [2], 71.8 µM; in [3] it was above 100 µM; in [4], above 100 µM; in [5] it was above 100 µM; in test [6], above 100 µM. The TGI was 74.1 µM in [7], above 100 µM in [8], above 100 µM in test [9] and above 100 µM in [10].

For the compound `O=C1Nc2ccc(C(=O)c3ccco3)cc2/C1=C/c1cc(Cl)c(O)c(Cl)c1`, the GI50 in test [1] is 7.45 µM; in [2], 1.76 µM; in [3], 6.98 µM; in [4], 6.53 µM; in [5], 1.72 µM; in test [6], 3.95 µM. The GI50 was 3.03 µM in [7], 4.74 µM in test [8], 6.07 µM in [9] and 4.32 µM in test [10]. Further, the TGI in test [1] was above 22.1 µM; in test [2], above 25 µM; in [3], above 24.1 µM; in [4], above 25 µM; in test [5], above 20.9 µM; in test [6] it was above 25 µM. Also, the TGI was determined as 18.8 µM in test [7], 21.7 µM in test [8], 17.7 µM in [9] and 10.6 µM in test [10].

As to `COc1ccc(CN(C)c2ccc(CO)c(Cl)c2)cc1`, the GI50 was 7.58 µM in [1]; 32.9 µM in test [2]; 0.125 µM in [3]; 21.5 µM in test [4]; 3 µM in test [5]; 4.05 µM in test [6]. Also, the GI50 was 27 µM in test [7], 12.9 µM in test [8], 13.7 µM in [9] and 2.93 µM in test [10]. The TGI is above 100 µM in [1]; above 100 µM in test [2]; 0.279 µM in test [3]; above 100 µM in [4]; above 64.1 µM in test [5]; above 87.3 µM in test [6]. The TGI was above 100 µM in [7], above 100 µM in test [8], 71.2 µM in test [9] and 12.8 µM in [10].

For the origin of these results see PubChem BioAssay (NCI).
